Results taken from patent publication US20240270821A1, “GIP/GLP1/GCG TRI-RECEPTOR AGONISTS AND USES THEREOF” (priority 2023, published 2024).
pEC50: −log10 of the molar value. Like-named read-outs stand apart in the source and are kept apart here. Starred links: 1 amine or outer side, 2 acyl side, 3 side chain; linkers in the order of their positions; H or OH if unused. Non-standard residues stand in square brackets, D forms with d. Residues, ends and D or L forms follow the SMILES beside them. Groups on a side chain read outwards from the residue. No end group written: not given here. *: point of attachment. C20 diacid = O=C(O)CCCCCCCCCCCCCCCCCCC(=O)*; C18 diacid = O=C(O)CCCCCCCCCCCCCCCCC(=O)*; αMePhe(2-F) = C[C@](N)(Cc1ccccc1F)C(=O)O; γGlu = O=C(O)[C@H](CCC(=O)[*:2])N[*:1]; αMe4Pal = C[C@](N)(Cc1ccncc1)C(=O)O; αMeY = C[C@](N)(Cc1ccc(O)cc1)C(=O)O; αMeF = C[C@](N)(Cc1ccccc1)C(=O)O; 4Pal = N[C@@H](Cc1ccncc1)C(=O)O; αMeL = CC(C)C[C@](C)(N)C(=O)O; αMeS = C[C@](N)(CO)C(=O)O; Orn = NCCC[C@H](N)C(=O)O; AEEA = NCCOCCOCC(=O)O; Aib = CC(C)(N)C(=O)O

Assays:
Type in all cases: cell-based
hGIPR [1] = target: T1, hGIPR (Homo sapiens, UniProt P48546); assay: Functional cAMP activity in the presence of 1% HSA; conditions: read-out: cAMP Rel EC50, hGIPR
T1 sequence (P48546 22-466): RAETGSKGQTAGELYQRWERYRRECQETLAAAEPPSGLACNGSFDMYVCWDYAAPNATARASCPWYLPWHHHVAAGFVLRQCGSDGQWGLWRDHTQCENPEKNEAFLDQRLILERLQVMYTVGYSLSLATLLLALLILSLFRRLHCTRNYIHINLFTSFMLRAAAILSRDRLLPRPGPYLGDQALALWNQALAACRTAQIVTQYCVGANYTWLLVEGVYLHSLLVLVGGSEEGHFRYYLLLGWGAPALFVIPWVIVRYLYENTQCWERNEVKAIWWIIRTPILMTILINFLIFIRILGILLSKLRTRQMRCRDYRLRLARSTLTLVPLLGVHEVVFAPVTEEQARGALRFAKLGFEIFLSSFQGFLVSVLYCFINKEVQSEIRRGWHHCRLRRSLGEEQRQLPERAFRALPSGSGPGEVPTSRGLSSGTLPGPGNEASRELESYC

hGLP-1R [2] = target: T2, hGLP-1R (Homo sapiens, UniProt P43220); assay: Functional cAMP activity in the presence of 1% HSA; conditions: read-out: cAMP Rel EC50, hGLP-1R
T2 sequence (P43220 24-463): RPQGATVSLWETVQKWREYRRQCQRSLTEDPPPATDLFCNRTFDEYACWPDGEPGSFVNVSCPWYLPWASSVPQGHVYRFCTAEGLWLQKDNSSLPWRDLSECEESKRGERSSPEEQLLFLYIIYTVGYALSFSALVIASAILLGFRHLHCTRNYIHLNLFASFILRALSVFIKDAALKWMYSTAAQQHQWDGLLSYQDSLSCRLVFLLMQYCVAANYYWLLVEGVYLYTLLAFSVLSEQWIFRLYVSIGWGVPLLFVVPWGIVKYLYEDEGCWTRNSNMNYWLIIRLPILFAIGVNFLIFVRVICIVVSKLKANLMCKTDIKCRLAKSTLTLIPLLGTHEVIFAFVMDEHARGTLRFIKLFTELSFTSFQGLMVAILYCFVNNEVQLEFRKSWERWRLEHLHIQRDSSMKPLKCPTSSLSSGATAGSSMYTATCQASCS

human GcgR = human GcgR (Homo sapiens, UniProt P47871); assay: Functional cAMP activity in the presence of 1% HSA; conditions: read-out: cAMP Rel EC50, hGcgR
Chain of human GcgR (P47871 26-477): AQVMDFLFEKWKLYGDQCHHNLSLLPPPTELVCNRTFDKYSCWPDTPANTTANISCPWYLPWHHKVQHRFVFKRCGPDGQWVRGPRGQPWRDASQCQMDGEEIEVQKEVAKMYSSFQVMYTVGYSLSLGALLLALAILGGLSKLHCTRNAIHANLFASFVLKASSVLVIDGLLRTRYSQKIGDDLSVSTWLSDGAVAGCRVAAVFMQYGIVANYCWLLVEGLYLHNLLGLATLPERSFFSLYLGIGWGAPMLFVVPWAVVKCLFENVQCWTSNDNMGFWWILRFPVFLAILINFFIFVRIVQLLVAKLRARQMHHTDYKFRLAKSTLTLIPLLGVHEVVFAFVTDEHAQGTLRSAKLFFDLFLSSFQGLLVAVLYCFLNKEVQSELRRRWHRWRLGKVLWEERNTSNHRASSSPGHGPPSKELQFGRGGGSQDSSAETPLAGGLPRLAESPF

hGIPR [3] = target: T1, hGIPR; assay: Functional cAMP activation in the presence of 0.1% casein (no HSA); conditions: read-out: Relative cAMP EC50, hGIPR;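 as to Relative cAMP EC50, hGIPR: intracellular cAMP rise after 30 min at 37 °C read by HTRF against a standard curve, scaled between buffer alone (0%) and top control ligand concentration (100%), four-parameter fit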;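 as to Relative cAMP EC50, hGLP-1R: intracellular cAMP rise after 30 min at 37 °C read by HTRF, normalized between buffer only (0%) and maximal control ligand (100%), four-parameter variable-slope fit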;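 as to Relative cAMP EC50, hGcgR: intracellular cAMP rise after 30 min at 37 °C, read by HTRF against a cAMP standard curve, scaled from buffer only (0%) to maximal control ligand response (100%)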
hGLP-1R [4] = target: T2, hGLP-1R; assay: as above; conditions: read-out: Relative cAMP EC50, hGLP-1R
hGcgR = hGcgR (Homo sapiens, UniProt P47871); assay: as above; conditions: read-out: Relative cAMP EC50, hGcgR;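 also: intracellular cAMP rise after 30 min at 37 °C, read by HTRF against a cAMP standard curve, scaled from buffer only (0%) to maximal control ligand response (100%)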
Chain of hGcgR (P47871 26-477): as above

[5] = in the presence of 0.1% casein (no HSA), geometric mean

pEC50 (hGIPR [3]) | pEC50 (hGLP-1R [4]) | pEC50 (hGcgR) | Compound | pEC50 (hGIPR [1]) | pEC50 (hGLP-1R [2]) | pEC50 (human GcgR) | pEC50 (hGIPR [3]; [5]) | pEC50 (hGLP-1R [4]; [5]) | pEC50 (hGcgR; [5])
10.33 | 9.68 | 8.23 | CC[C@H](C)[C@H](NC(=O)[C@H](Cc1ccccc1)NC(=O)[C@H](C)NC(=O)C(C)(C)NC(=O)[C@H](CCC(N)=O)NC(=O)[C@H](C)NC(=O)[C@H](CCCCNC(=O)COCCOCCNC(=O)CC[C@H](NC(=O)CCCCCCCCCCCCCCCCC(=O)O)C(=O)O)NC(=O)[C@H](CCCN)NC(=O)[C@H](CC(=O)O)NC(=O)[C@H](CC(C)C)NC(=O)[C@](C)(CC(C)C)NC(=O)[C@@H](NC(=O)[C@](C)(CO)NC(=O)[C@H](Cc1ccncc1)NC(=O)[C@H](CC(=O)O)NC(=O)[C@H](CO)NC(=O)[C@@H](NC(=O)[C@](C)(Cc1ccccc1F)NC(=O)[C@@H](NC(=O)CNC(=O)[C@H](CCC(N)=O)NC(=O)C(C)(C)NC(=O)[C@@H](N)Cc1c[nH]cn1)[C@@H](C)O)[C@@H](C)O)[C@@H](C)CC)C(=O)N[C@H](CCC(=O)O)C(=O)N[C@@H](Cc1ccc(O)cc1)C(=O)N[C@@H](CC(C)C)C(=O)N[C@@H](CC(C)C)C(=O)N[C@@H](CCC(=O)O)C(=O)NCC(=O)NCC(=O)N1CCC[C@H]1C(=O)N[C@@H](CO)C(=O)N[C@@H](CO)C(=O)NCC(=O)N[C@@H](CCC(=O)O)C(=O)N1CCC[C@H]1C(=O)N1CCC[C@H]1C(=O)N1CCC[C@H]1C(=O)N[C@@H](CCC(=O)O)C(N)=O [Example 466] (H-H[Aib]QGT[αMePhe(2-F)]TSD[4Pal][αMeS]I[αMeL]LD[Orn]K([AEEA-γGlu-C18 diacid])AQ[Aib]AFI[dE]YLLEGGPSSGEPPPE-NH2; N-terminus assumed) | 8.25 | 7.88 | 6.46 | – | – | –
– | – | – | H-Y[Aib]QGTFTSD[4Pal]SQ[αMeL]LD[Orn]K([γGlu-γGlu-C18 diacid])AQ[αMe4Pal]QFIEYLIAGGPSSGAPPPSGSEE-NH2 [Example 1005] | 7.84 | 6.77 | 5.78 | 9.82 | 8.83 | 8.02
– | – | – | Y[Aib]QGTFTSDFS[Orn][αMeL]LDKK([γGlu-γGlu-C18 diacid])AQ[Aib]AFIEYLLEGGPSSGAPPPSGT-NH2 [Example 260] | 7.91 | 6.80 | 6.79 | 9.60 | 8.41 | 8.30
10.34 | 9.00 | 8.28 | H-Y[Aib]QGT[αMePhe(2-F)]TSD[4Pal]SILLD[Orn]K([γGlu-γGlu-C18 diacid])AQ[αMe4Pal][Orn]FI[dE]YLIEGGPSSGEPPPSGTEE-NH2 [Example 584] | 8.26 | 6.86 | 6.30 | – | – | –
– | – | – | H-Y[Aib]QGT[αMeF]TSD[4Pal][αMeS]I[αMeL]LD[Orn]K([AEEA-γGlu-C18 diacid])AQ[αMe4Pal]EFI[dE][αMeY]LIEGGPSSGAPPPSGE-NH2 [Example 1164] | 8.93 | 7.20 | 6.44 | 10.98 | 9.31 | 8.55
– | – | – | H-Y[Aib]QGT[αMePhe(2-F)]TSD[4Pal]SILLDKQAQK([AEEA-AEEA-γGlu-C20 diacid])AFIEYLLEGGPSSGEPPPSEG-NH2 [Example 347] | 7.76 | 6.60 | 5.44 | 10.20 | 9.10 | 8.05
11.04 | 9.72 | 8.46 | CC[C@H](C)[C@H](NC(=O)[C@H](CC(C)C)NC(=O)[C@](C)(Cc1ccc(O)cc1)NC(=O)[C@@H](CCC(=O)O)NC(=O)[C@@H](NC(=O)[C@H](Cc1ccccc1)NC(=O)[C@H](CC(N)=O)NC(=O)C(C)(C)NC(=O)[C@H](CCC(N)=O)NC(=O)[C@H](C)NC(=O)[C@H](CCCCNC(=O)COCCOCCNC(=O)CC[C@H](NC(=O)CCCCCCCCCCCCCCCCC(=O)O)C(=O)O)NC(=O)[C@H](CCCN)NC(=O)[C@H](CC(=O)O)NC(=O)[C@H](CC(C)C)NC(=O)[C@](C)(CC(C)C)NC(=O)[C@@H](NC(=O)[C@](C)(CO)NC(=O)[C@H](Cc1ccncc1)NC(=O)[C@H](CC(=O)O)NC(=O)[C@H](CO)NC(=O)[C@@H](NC(=O)[C@](C)(Cc1ccccc1F)NC(=O)[C@@H](NC(=O)CNC(=O)[C@H](CCC(N)=O)NC(=O)C(C)(C)NC(=O)[C@@H](N)Cc1ccc(O)cc1)[C@@H](C)O)[C@@H](C)O)[C@@H](C)CC)[C@@H](C)CC)C(=O)N[C@@H](CCC(=O)O)C(=O)NCC(=O)NCC(=O)N1CCC[C@H]1C(=O)N[C@@H](CO)C(=O)N[C@@H](CO)C(=O)NCC(=O)N[C@@H](CCC(=O)O)C(=O)N1CCC[C@H]1C(=O)N1CCC[C@H]1C(=O)N1CCC[C@H]1C(=O)N[C@@H](CCC(=O)O)C(N)=O [Example 456] (H-Y[Aib]QGT[αMePhe(2-F)]TSD[4Pal][αMeS]I[αMeL]LD[Orn]K([AEEA-γGlu-C18 diacid])AQ[Aib]NFI[dE][αMeY]LIEGGPSSGEPPPE-NH2) | 9.00 | 7.90 | 6.64 | – | – | –

Compound | pEC50 (hGIPR [3]) | pEC50 (hGLP-1R [4]) | pEC50 (hGcgR) | pEC50 (hGIPR [1]) | pEC50 (hGLP-1R [2]) | pEC50 (human GcgR) | pEC50 (hGIPR [3]; [5]) | pEC50 (hGLP-1R [4]; [5]) | pEC50 (hGcgR; [5])
H-Y[Aib]QGT[αMePhe(2-F)]TSD[4Pal]SI[αMeL]LDKK([γGlu-γGlu-C18 diacid])AQ[Aib]AFIEYLEEGGPSSGAPPPSGEGE-NH2 [Example 623] | 10.65 | 9.04 | 8.10 | 8.83 | 7.21 | 6.08 | – | – | –
